How the values were obtained:
Adenosine receptor A1 [1] = target: T1, Adenosine receptor A1 (Cavia porcellus, UniProt P47745); test: Effective concentration required for prolongation of the stimulus-QRS interval by 50% of the maximum response at the A1 adenosine receptor in langendorff guinea pig heart preparation; type: functional
T1 sequence (P47745 whole entry): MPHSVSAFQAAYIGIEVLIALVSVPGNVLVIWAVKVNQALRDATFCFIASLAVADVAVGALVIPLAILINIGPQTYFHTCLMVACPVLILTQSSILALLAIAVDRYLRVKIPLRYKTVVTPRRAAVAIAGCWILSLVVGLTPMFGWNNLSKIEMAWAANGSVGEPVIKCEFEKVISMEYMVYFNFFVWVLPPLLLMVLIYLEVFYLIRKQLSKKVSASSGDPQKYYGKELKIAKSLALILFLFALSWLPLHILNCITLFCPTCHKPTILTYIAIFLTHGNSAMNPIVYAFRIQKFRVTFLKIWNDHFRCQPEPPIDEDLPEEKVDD

Adenosine A2 receptor [2] = target: T2, Adenosine A2 receptor (Homo sapiens, UniProt P29275+P29274)
Adenosine A2 receptor [3] = target: T2, Adenosine A2 receptor; remark: listed apart in the source
Adenosine receptor A1 [4] = target: T1, Adenosine receptor A1; test: Effective concentration required for prolongation of the stimulus-QRS interval by 50% of the maximum response at the Adenosine A1 receptor in langendorff guinea pig heart preparation; type: functional

| EC50 (Adenosine receptor A1 [1]) [µM] | -Log EC50 (Adenosine A2 receptor [2]) | -Log EC50 (Adenosine A2 receptor [3]) | EC50 (Adenosine receptor A1 [4]) [µM] | SMILES |
| --- | --- | --- | --- | --- |
| 19.5 | 8.85 | – | – | COc1ccc(CCOc2nc(N)c3ncn(C4O[C@@H](CO)[C@H](O)[C@@H]4O)c3n2)cc1 (stereo partly drawn) |
| 46.8 | 6.38 | – | – | Nc1nc(Oc2ccccc2)nc2c1ncn2C1O[C@@H](CO)[C@H](O)[C@@H]1O (stereo partly drawn) |
| 7.08 | 8.02 | – | – | Nc1nc(OCCCCc2ccccc2)nc2c1ncn2C1O[C@@H](CO)[C@H](O)[C@@H]1O (stereo partly drawn) |
| – | – | 8.59 | 16.2 | COc1cccc(CCOc2nc(N)c3ncn(C4O[C@@H](CO)[C@H](O)[C@@H]4O)c3n2)c1 (stereo partly drawn) |
| 25.7 | 9.06 | – | – | Nc1nc(OCCc2ccc(F)cc2)nc2c1ncn2C1O[C@@H](CO)[C@H](O)[C@@H]1O (stereo partly drawn) |
| – | – | – | 14.5 | Nc1nc(OCCc2ccc(Cl)cc2)nc2c1ncn2[C@H]1O[C@@H](CO)[C@H](O)[C@@H]1O |
| – | – | 6.38 | 6.31 | Nc1nc(OCc2ccccc2)nc2c1ncn2C1O[C@@H](CO)[C@H](O)[C@@H]1O (stereo partly drawn) |
| 21.9 | 8.26 | – | – | Nc1nc(OCCc2ccccc2Cl)nc2c1ncn2C1O[C@@H](CO)[C@H](O)[C@@H]1O (stereo partly drawn) |
| 34.7 | 8.72 | – | – | Nc1nc(OCCc2cccc(F)c2)nc2c1ncn2C1O[C@@H](CO)[C@H](O)[C@@H]1O (stereo partly drawn) |
| – | – | 7.66 | 46.8 | COc1cc(CCOc2nc(N)c3ncn(C4O[C@@H](CO)[C@H](O)[C@@H]4O)c3n2)cc(OC)c1OC (stereo partly drawn) |
| – | – | 7.5 | 35.5 | COc1ccccc1CCOc1nc(N)c2ncn(C3O[C@@H](CO)[C@H](O)[C@@H]3O)c2n1 (stereo partly drawn) |
| 20 | 8.55 | – | – | Nc1nc(OCCc2ccccc2)nc2c1ncn2C1O[C@@H](CO)[C@H](O)[C@@H]1O (stereo partly drawn) |
| 35.5 | 8.58 | – | – | Nc1nc(OCCc2ccccc2F)nc2c1ncn2C1O[C@@H](CO)[C@H](O)[C@@H]1O (stereo partly drawn) |
| – | – | 8.8 | 12.9 | Cc1cccc(CCOc2nc(N)c3ncn(C4O[C@@H](CO)[C@H](O)[C@@H]4O)c3n2)c1 (stereo partly drawn) |
| – | – | 8.31 | 42.7 | COc1ccc(CCOc2nc(N)c3ncn(C4O[C@@H](CO)[C@H](O)[C@@H]4O)c3n2)cc1OC (stereo partly drawn) |
| – | – | 8.52 | 16.2 | Nc1nc(OCCc2cccc(Cl)c2)nc2c1ncn2C1O[C@@H](CO)[C@H](O)[C@@H]1O (stereo partly drawn) |
| – | – | 8.43 | 11.7 | Nc1nc(OCCc2cccs2)nc2c1ncn2C1O[C@@H](CO)[C@H](O)[C@@H]1O (stereo partly drawn) |
| – | – | 8.42 | 25.1 | Cc1ccccc1CCOc1nc(N)c2ncn(C3O[C@@H](CO)[C@H](O)[C@@H]3O)c2n1 (stereo partly drawn) |
| 20 | 7.21 | – | – | Nc1nc(OCCCc2ccccc2)nc2c1ncn2[C@H]1O[C@@H](CO)[C@H](O)[C@@H]1O |
| 8.32 | – | – | – | Nc1nc(OCCc2cccc3ccccc23)nc2c1ncn2C1O[C@@H](CO)[C@H](O)[C@@H]1O (stereo partly drawn) |

| SMILES | EC50 (Adenosine receptor A1 [1]) [µM] | -Log EC50 (Adenosine A2 receptor [2]) | -Log EC50 (Adenosine A2 receptor [3]) | EC50 (Adenosine receptor A1 [4]) [µM] |
| --- | --- | --- | --- | --- |
| Nc1nc(OCCc2ccsc2)nc2c1ncn2C1O[C@@H](CO)[C@H](O)[C@@H]1O (stereo partly drawn) | – | – | […] | 18.6 |
| Nc1nc(OCCCCCc2ccccc2)nc2c1ncn2C1O[C@@H](CO)[C@H](O)[C@@H]1O (stereo partly drawn) | 4.57 | 8.2 | – | – |
| Nc1nc(OCCc2c[nH]c3ccccc23)nc2c1ncn2C1O[C@@H](CO)[C@H](O)[C@@H]1O (stereo partly drawn) | 14.1 | 8.01 | – | – |
| Cc1ccc(CCOc2nc(N)c3ncn(C4O[C@@H](CO)[C@H](O)[C@@H]4O)c3n2)cc1 (stereo partly drawn) | – | – | 9.72 | 7.41 |
| Nc1nc(OCCc2ccc3ccccc3c2)nc2c1ncn2C1O[C@@H](CO)[C@H](O)[C@@H]1O (stereo partly drawn) | – | – | 9.3 | 11.5 |
